Patent US10201583B2, “Antioxidant dietary supplement and related method” (priority 2012, dated 2019)

Experiments:
[1] = test system: Antioxidant Response Element (ARE); test: ARE luciferase reporter assay in stably transfected HepG2 cells; type: cell-based, human; conditions: individual ingredient at the noted concentration, 48 h, control sulforaphane 10 μM
Procedure: The formulation including the blend of turmeric, quercetin and rosemary (TQR Blend, also referred to herein as Blend A) was tested to evaluate the ARE of the blend. In particular, the three individual ingredients, turmeric, quercetin and rosemary were tested by themselves and in combination as a blend. In the testing, a conventional assay for determining ARE was utilized. Generally, the assay included the human hepatocyte cell line HepG2 obtained from ATCC of Manassas, Va. that was stably transfected with a vector. The vector contained four repeats of the ARE DNA sequence ([…] ID NO: 1)) upstream of a minimal promoter using the firefly luciferase gene as a reporter. These cells were then treated with the individual ingredients turmeric, quercetin and rosemary, and the TQR Blend in varying concentrations for 48 hours in this and the other noted examples below. The human hepatocytes were lysed, the luciferase substrate, purchased from Biotium of Hayward, Calif., added, and the relative luminescence values were obtained for all samples. The results are shown as a % Response vs. Control. The control substance was sulforaphane at 10 μM.

[2] = test system: HMOX-1 in bovine aortic endothelial cells; conditions: Motterlini et al. 2000; cited from earlier work

O=c1c(O)c(-c2ccc(O)c(O)c2)oc2cc(O)cc(O)c12 [quercetin]
% Response vs. Control in ARE assay ([1]; TQR Blend 50 μg/ml at 1:3:5): about 50% | % Response vs. Control in ARE assay ([1]; TQR Blend 60 μg/ml at 1:3:5): about 75% | % Response vs. Control in ARE assay ([1]; TQR Blend 70 μg/ml at 1:3:5): about 80% | % Response vs. Control in ARE assay ([1]; TQR Blend 80 μg/ml at 1:3:5): about 90%

COc1cc(/C=C/C(=O)CC(=O)/C=C/c2ccc(O)c(OC)c2)ccc1O [curcumin]
induction of HMOX-1 in endothelial cells [2]: potent inducer of HMOX-1
